One may read the EC50 as the midpoint of the concentration-response curve.

Experimental findings from patent US20100331297A1, “MODULATION OF PROTEIN TRAFFICKING” (FOLDRX PHARMACEUTICALS, INC., priority 2007, published 2010) are described below.

For experiment [1], the target named is T1, ΔF508 CFTR (Homo sapiens, UniProt P13569, DEL508-508). The experiment in a line: Potentiator activity, YFP halide (iodide) quenching assay in FRT cells expressing ΔF508 CFTR, 27° C. pre-incubation. Format: cell-based. Also on record: expressed in transfected cells; host or cells: Fischer rat thyroid (FRT) cells; Potentiator activity compared to the DMSO control (no EC50 obtained): scale not given here. The note with it: for EC50: FRT cells ΔF508 CFTR/YFP, 24 hours at 27° C., compound with forskolin 30 min. How it is done: Fisher rat thyroid (FRT) cells stably expressing ΔF508 CFTR and a halide-sensitive variant of yellow fluorescent protein (YFP) were seeded into microtiter plates and allowed to grow for 24 hours at 37° C. and 5% CO2, as described above. The medium was replaced with fresh medium and the cells were incubated for a further 24 hours at 27° C. and 5% CO2 to increase the level of mutant CFTR at the cell surface.
T1 sequence (P13569 with tags, fused parts or gaps DEL508-508): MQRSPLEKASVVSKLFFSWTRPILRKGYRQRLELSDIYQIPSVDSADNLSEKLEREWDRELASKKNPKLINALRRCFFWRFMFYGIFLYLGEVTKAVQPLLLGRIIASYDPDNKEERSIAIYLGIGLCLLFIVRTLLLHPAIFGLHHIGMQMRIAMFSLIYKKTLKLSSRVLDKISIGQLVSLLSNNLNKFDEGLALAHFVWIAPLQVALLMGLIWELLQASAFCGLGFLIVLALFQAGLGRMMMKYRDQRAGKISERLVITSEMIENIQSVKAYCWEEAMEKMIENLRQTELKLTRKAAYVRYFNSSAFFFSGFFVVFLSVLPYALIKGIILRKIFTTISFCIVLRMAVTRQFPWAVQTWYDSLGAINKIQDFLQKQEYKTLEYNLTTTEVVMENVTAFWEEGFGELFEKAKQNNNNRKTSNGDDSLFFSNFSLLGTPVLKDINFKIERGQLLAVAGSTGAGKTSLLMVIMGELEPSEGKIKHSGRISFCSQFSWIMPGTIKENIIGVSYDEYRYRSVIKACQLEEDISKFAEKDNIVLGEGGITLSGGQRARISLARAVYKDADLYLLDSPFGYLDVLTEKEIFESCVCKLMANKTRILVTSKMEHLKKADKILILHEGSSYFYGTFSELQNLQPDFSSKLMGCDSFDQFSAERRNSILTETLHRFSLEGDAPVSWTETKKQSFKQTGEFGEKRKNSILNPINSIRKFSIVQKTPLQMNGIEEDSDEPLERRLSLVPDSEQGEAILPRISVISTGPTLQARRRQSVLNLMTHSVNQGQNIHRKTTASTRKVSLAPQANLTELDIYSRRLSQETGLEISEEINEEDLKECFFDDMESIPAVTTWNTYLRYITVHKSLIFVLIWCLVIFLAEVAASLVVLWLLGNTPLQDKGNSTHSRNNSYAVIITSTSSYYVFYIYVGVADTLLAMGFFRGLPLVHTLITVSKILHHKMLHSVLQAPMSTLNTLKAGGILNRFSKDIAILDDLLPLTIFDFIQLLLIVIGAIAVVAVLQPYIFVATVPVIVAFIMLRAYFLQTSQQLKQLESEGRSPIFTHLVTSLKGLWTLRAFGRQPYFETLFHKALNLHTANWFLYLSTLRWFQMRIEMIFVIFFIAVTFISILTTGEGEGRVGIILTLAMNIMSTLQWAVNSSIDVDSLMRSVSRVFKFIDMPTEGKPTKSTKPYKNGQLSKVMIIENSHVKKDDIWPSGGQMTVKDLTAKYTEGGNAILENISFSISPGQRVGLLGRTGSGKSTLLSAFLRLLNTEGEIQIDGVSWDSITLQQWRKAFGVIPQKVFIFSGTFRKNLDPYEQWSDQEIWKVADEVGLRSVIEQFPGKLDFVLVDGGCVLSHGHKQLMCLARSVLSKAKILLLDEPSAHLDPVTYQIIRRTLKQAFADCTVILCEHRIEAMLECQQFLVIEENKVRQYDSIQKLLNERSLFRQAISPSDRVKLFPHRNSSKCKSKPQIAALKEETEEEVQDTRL
Compounds in DMSO solution were pre-diluted into phosphate-buffered saline solution (PBS) containing forskolin. Activity of CFTR was assayed by removing the medium, washing the cell monolayer with PBS, and then applying the compounds diluted in PBS containing forskolin. After 30 min of incubation at 37° C., the plates were placed in a fluorescence plate reader equipped with a reagent injector. After measuring an initial fluorescence value, iodide-containing buffer was injected and the decrease in fluorescence was followed at excitation and emission wavelengths of 485 and 530 nm, respectively.
Potentiator activity was calculated as follows. Normalized endpoint fluorescence was calculated by dividing the endpoint fluorescence after iodide injection by the initial fluorescence reading and multiplication by 100. Potentiator EC50 values were calculated by the same method as corrector EC50 values.

The target of experiment [2] is T1, ΔF508 CFTR. The experiment in a line: Corrector activity, YFP halide (iodide) quenching assay in FRT cells expressing ΔF508 CFTR. The experiment is classed as cell-based. Also on record: expressed in transfected cells; host or cells: Fischer rat thyroid (FRT) cells. The note with it: FRT cells ΔF508 CFTR/YFP, 24 hours with compound at 37° C., forskolin and genistein; read-out: Corrector EC50. An outline of the steps:
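FRT cells co-expressing ΔF508 CFTR and halide-sensitive YFP were incubated 24 h at 37° C with compounds, then stimulated 30 min at 37° C in PBS with forskolin and genistein. Endpoint fluorescence after iodide injection was normalized to initial reading; EC50 from 4-parameter fit with bottom constrained to DMSO control.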

Consider `CCn1nc(-c2ccc(N=[N+]=[N-])cc2)c2c(N)ncnc21` [compound 170], for which the EC50 is greater than 15 µM in experiment [1] and 5 to 10 µM in experiment [2].
In the case of `CC(C)(C)n1nc(Sc2ccccc2)c2c(N)ncnc21` [compound 172], the values for the EC50 in experiment [1] and in experiment [2] were less than 2 µM and greater than 15 µM, respectively.
Take `CC(C)(C)n1nc([S+]([O-])c2ccccc2)c2c(N)ncnc21` (centres unmarked) [compound 173, 3-benzenesulfinyl-1-tert-butyl-1H-pyrazolo[3,4-d]pyrimidin-4-ylamine]: the EC50 in experiment [1] and in experiment [2] was greater than 15 µM in each case.
In the case of `CC(C)(C)n1nc(Oc2ccc(F)c(F)c2)c2c(N)ncnc21` [compound 174], the EC50 in experiment [1] was less than 2 µM; in experiment [2] it was greater than 15 µM.
Regarding `CC(C)(C)n1nc(Oc2ccc(F)c(Cl)c2)c2c(N)ncnc21` [compound 176], the results for the EC50 in experiment [1] and in experiment [2] were less than 2 µM and greater than 15 µM, respectively.
Regarding `Cc1ccc(Oc2nn(C(C)(C)C)c3ncnc(N)c23)cc1C` [compound 177], the half-maximal effective concentration (EC50) in experiment [1] is less than 2 µM; in experiment [2], greater than 15 µM.
Turning to `CC(C)(C)n1nc(Oc2cccc(F)c2F)c2c(N)ncnc21` [compound 178], the EC50 in experiment [1] is 2 to 5 µM; in experiment [2], greater than 15 µM.
Regarding `Cc1cc(Oc2nn(C(C)(C)C)c3ncnc(N)c23)ccc1F` [compound 179], the EC50 in experiment [1] was less than 2 µM; in experiment [2], greater than 15 µM.
For the compound `Cc1cc(C)cc(Oc2nn(C(C)(C)C)c3ncnc(N)c23)c1` [compound 180], the EC50 in experiment [1] was less than 2 µM; in experiment [2], 5 to 10 µM.
Consider `CC(C)(C)n1nc(Oc2cccnc2)c2c(N)ncnc21` [compound 183], for which the EC50 in experiment [1] and in experiment [2] was greater than 15 µM each time.
For `Cc1ccccc1Oc1nn(C(C)(C)C)c2ncnc(N)c12` [compound 185], the half-maximal effective concentration (EC50) in experiment [1] is less than 2 µM; in experiment [2] it was greater than 15 µM.
`Nc1ncnc2c1c(-c1ccc(Cl)cc1)nn2C(=O)Oc1ccccc1` [compound 187]: the EC50 in experiment [1] was greater than 15 µM; in experiment [2] it was 5 to 10 µM.
With `Nc1ncnc2c1c(-c1ccc(Cl)cc1)nn2C(=O)OCc1ccccc1` [compound 188], the results for the half-maximal effective concentration (EC50) in experiment [1] and in experiment [2] were greater than 15 µM and 5 to 10 µM, respectively.
The like results for `CC(C)(C)n1nc(Oc2cccc(Oc3ccccc3)c2)c2c(N)ncnc21` [compound 189] were, in that order, less than 2 µM and greater than 15 µM.
On to `CC(C)(C)n1nc(Oc2cccc(-c3ccccc3)c2)c2c(N)ncnc21` [compound 190], for which the concentration for a half-maximal effect (EC50) in experiment [1] was greater than 15 µM; in experiment [2], 5 to 10 µM.
`CC(C)(C)n1nc(S(=O)(=O)c2ccccc2)c2c(N)ncnc21` [compound 191, 3-Benzenesulfonyl-1-tert-butyl-1H-pyrazolo[3,4-d]pyrimidin-4-ylamine]: the EC50 in experiment [1] was 5 to 10 µM; in experiment [2] it was greater than 15 µM.
As to `CC(C)(C)n1nc(Oc2cccc(OC(F)(F)F)c2)c2c(N)ncnc21` [compound 194], the EC50 in experiment [1] and in experiment [2] was greater than 15 µM throughout.
As for `CC(C)(C)n1nc(Oc2cccc3cccnc23)c2c(N)ncnc21` [compound 195], the 50% effective concentration (EC50) was greater than 15 µM in experiment [1] and 5 to 10 µM in experiment [2].
For `CC(C)(C)n1nc(Oc2ccc(F)cc2)c2c(N)ncnc21` [compound 196], the EC50 is less than 2 µM in experiment [1] and 5 to 10 µM in experiment [2].
For the compound `CC(C)(C)n1nc(Oc2ccccc2F)c2c(N)ncnc21` [compound 197], the figures for the EC50 in experiment [1] and in experiment [2] were less than 2 µM and 5 to 10 µM, respectively.
For the compound `CC(C)(C)n1nc(Oc2cccc3ccccc23)c2c(N)ncnc21` [compound 198, 1-tert-Butyl-3-(naphthalen-1-yloxy)-1H-pyrazolo[3,4-d]pyrimidin-4-ylamine], the “Potentiator activity compared to the DMSO control (no EC50 obtained)” value in experiment [1] (at 12 μm) is on record as “# (at 12 μm)”. The EC50 in experiment [2] is greater than 15 µM.
As to `CC(C)(C)n1nc(Oc2cccc(F)c2)c2c(N)ncnc21` [compound 200], the half-maximal effective concentration (EC50) in experiment [1] is less than 2 µM; in experiment [2], greater than 15 µM.
For the compound `CC(C)(C)n1nc(Oc2cccc(C#N)c2)c2c(N)ncnc21` [compound 201], the EC50 in experiment [1] and in experiment [2] was 5 to 10 µM in each case.
`Nc1ncnc2c1c(-c1ccc(Cl)cc1)nn2CC(F)F` [compound 202]: the results for the concentration giving a half-maximal response (EC50) in experiment [1] and in experiment [2] were greater than 15 µM and 5 to 10 µM, respectively.
`CC(C)(C)n1nc(Oc2ccc(C#N)cc2)c2c(N)ncnc21` [compound 205]: the EC50 in experiment [1] is less than 2 µM; in experiment [2], greater than 15 µM.
On the same counts, the results for `Cc1ccc(F)c(Oc2nn(C(C)(C)C)c3ncnc(N)c23)c1` [compound 206] are greater than 15 µM and greater than 15 µM.
As for `CCn1nc(Sc2cccc3ccccc23)c2c(N)ncnc21` [compound 207], the EC50 in experiment [1] is less than 2 µM; in experiment [2], greater than 15 µM.
The like results for `CCn1nc(Sc2ccc(F)cc2)c2c(N)ncnc21` [compound 208] were, in that order, less than 2 µM and greater than 15 µM.
On the same counts, the results for `CC(C)(C)n1nc(Oc2cccc3c2CCCC3)c2c(N)ncnc21` [compound 209] are greater than 15 µM and greater than 15 µM.
In the case of `CC(C)(C)n1nc(Oc2ccc3c(c2)CCC3)c2c(N)ncnc21` [compound 210], the EC50 was less than 2 µM in experiment [1] and 5 to 10 µM in experiment [2].
Take `CCn1nc(S(=O)(=O)c2cccc3ccccc23)c2c(N)ncnc21` [compound 212]: the EC50 in experiment [1] and in experiment [2] was greater than 15 µM each time.
Turning to `CCn1nc(Sc2ccc(Cl)cc2)c2c(N)ncnc21` [compound 216], the EC50 in experiment [1] was less than 2 µM; in experiment [2], greater than 15 µM.
For `CCn1nc(Sc2ccccc2F)c2c(N)ncnc21` [compound 217], the concentration giving a half-maximal response (EC50) in experiment [1] and in experiment [2] was greater than 15 µM in each case.
Take `CCn1nc(Sc2cccc(C)c2)c2c(N)ncnc21` [compound 218]: the EC50 in experiment [1] is less than 2 µM; in experiment [2], 5 to 10 µM.
The like results for `CCn1nc([S+]([O-])c2cccc(C)c2)c2c(N)ncnc21` (centres unmarked) [compound 224] were, in that order, greater than 15 µM and greater than 15 µM.
The like results for `CCn1nc(Sc2cccc(Cl)c2)c2c(N)ncnc21` [compound 226] were, in that order, less than 2 µM and greater than 15 µM.
For the compound `CCn1nc(Sc2ccccc2Cl)c2c(N)ncnc21` [compound 227], the EC50 in experiment [1] and in experiment [2] was greater than 15 µM throughout.
With `Nc1ncnc2c1c(Oc1cccc(Cl)c1)nn2C1CCC1` [compound 228], the EC50 in experiment [1] is less than 2 µM; in experiment [2], greater than 15 µM.
Regarding `CC(C)(C)n1nc(Oc2ccc(OCc3ccccc3)cc2)c2c(N)ncnc21` [compound 233], the EC50 in experiment [1] and in experiment [2] was greater than 15 µM each time.
On to `CCn1nc(Sc2cccc(Br)c2)c2c(N)ncnc21` [compound 236], for which the values for the EC50 in experiment [1] and in experiment [2] were less than 2 µM and greater than 15 µM, respectively.
For `CC(C)(C)n1nc(Oc2ccc(C(=O)c3ccccc3)cc2)c2c(N)ncnc21` [compound 237], the 50% effective concentration (EC50) in experiment [1] and in experiment [2] was greater than 15 µM each time.
As for `CCn1nc([S+]([O-])c2cccc(F)c2)c2c(N)ncnc21` (centres unmarked) [compound 238], the EC50 in experiment [1] and in experiment [2] was greater than 15 µM each time.
For `CCC(=O)Nc1ncnc2c1c(-c1ccc(Cl)cc1)nn2C(C)(C)C` [compound 240], the EC50 in experiment [1] is less than 2 µM; in experiment [2], 5 to 10 µM.
In the case of `CCn1nc([S+]([O-])c2cccc3ccccc23)c2c(N)ncnc21` (centres unmarked) [compound 241], the EC50 in experiment [1] and in experiment [2] was greater than 15 µM throughout.
`CC(C)(C)n1nc(Sc2cccc(C(F)(F)F)c2)c2c(N)ncnc21` [compound 244, 1-tert-Butyl-3-(3-trifluoromethyl-phenylsulfanyl)-1H-pyrazolo[3,4-d]pyrimidin-4-ylamine]: the EC50 in experiment [1] was 5 to 10 µM; in experiment [2], greater than 15 µM.
The like results for `CC(C)(C)n1nc(Sc2ccccn2)c2c(N)ncnc21` [compound 245] were, in that order, 5 to 10 µM and greater than 15 µM.
`Nc1ncnc2c1c(-c1ccc(Cl)cc1)nn2C1CCCC1` [compound 247]: the EC50 in experiment [1] and in experiment [2] was 2 to 5 µM throughout.
With `CC(C)Cn1nc(-c2ccc(Cl)cc2)c2c(N)ncnc21` [compound 252], the EC50 in experiment [1] lay within 5 to 10 µM; in experiment [2], 2 to 5 µM.
In the case of `Nc1ncnc2c1c(Oc1cccc(Cl)c1)nn2CC1CCC1` [compound 256], the EC50 was less than 2 µM in experiment [1] and greater than 15 µM in experiment [2].
Consider `Nc1ncnc2c1c(-c1ccc(Cl)cc1)cn2C1CCC1` [compound 257], for which the EC50 in experiment [1] and in experiment [2] was less than 2 µM each time.
As for `Nc1ncnc2c1c(-c1ccc(Cl)cc1)cn2CC1CCC1` [compound 262], the EC50 in experiment [1] and in experiment [2] was 2 to 5 µM in each case.
For `Nc1ncnc2c1c(Oc1cccc(Cl)c1)nn2CC(F)F` [compound 263], the EC50 in experiment [1] and in experiment [2] was greater than 15 µM throughout.
